Measured values published in paper PMC10857906, “PROTAC-mediated NR4A1 degradation as a novel strategy for cancer immunotherapy” (The Journal of Experimental Medicine, 2024).

What was measured:
PK study in mice = assay type: in vivo, C57BL/6 mice; conditions: mouse
Description: The PK study of NR-V04 was done by Bioduro Inc. on three healthy male C57BL/6 mice weighing between 20 and 25 g in each group. Test compound (i.v.) was dissolved in 5% DMSO/3% tween 80 in PBS with 0.5 mEq 1N HCl and was administered (n = 3 per group) at a dose level of 2 mg/kg (concentration: 0.4 mg/ml). Test compounds (i.p.) were dissolved in 5% DMSO/3% tween 80 in PBS with 2 mEq 1N HCl (concentration […]) and were administrated at a dose level of 20 mg/kg. Plasma samples (i.v.) were collected from the orbital plexus at 0.083, 0.25, 0.5, 1.0, 2.0, 4.0, 8.0, and 24 h, and plasma samples (i.p.) were collected from the orbital plexus at 0.25, 0.50, 1.0, 2.0, 4.0, 8.0, and 24 h after dosing. The drug concentrations in the samples were quantified by LC/tandem MS. PK parameters were calculated from the mean plasma concentration by non-compartmental analysis.

TI-B cells = experiment: Immune profile by flow cytometry in Yumm1.7 tumor-bearing mice; assay type: in vivo, mouse; conditions: Yumm1.7 tumors, 2 doses of 1.8 mg/kg i.p.
Description: (§1) For syngeneic tumor models, 5 × 10^5 cells MC38, Yumm1.7, and Yummer1.7, 1 × 10^5 cells of B16F10 were resuspended in PBS and implanted into 7–9-wk-old mice subcutaneously. For the tumor inhibition experiment, mice were treated with 1.8 mg/kg NR-V04 or 0.75 mg/kg celastrol by i.p. injection twice weekly. For the immune profile experiment, once tumors reached 0.5 cm in diameter, mice were treated with 1.8 mg/kg NR-V04 by i.p. injection twice weekly. For the toxicity experiment, male and female non-tumor-bearing mice were treated with 2 mg/kg NR-V04 for two doses in the first week and 5 mg/kg for another two doses in the second week. Blood samples were taken from the submandibular (facial) vein before each treatment and 42 days later for hematological analysis, and body weight was measured twice per week up to day 42. Mice were euthanized in accordance with the IACUC protocol once the largest tumors reached 2 cm in diameter, and tissues were collected for further analysis.
Mouse tumors were excised and ∼200 mg of tumor tissue was enzymatically and mechanically digested using the mouse Tumor Dissociation Kit (Miltenyi Biotec) to obtain a single-cell suspension. […] Flow cytometry was performed on a three laser Cytek Aurora Cytometer (Cytek Biosciences) and analyzed using FlowJo software (BD Biosciences). […]

B16F10 melanoma = B16F10 melanoma syngeneic tumor model; assay type: in vivo, mouse
Description: 7–9-wk-old C57BL/6J, B6.129S2-Ighm^tm1Cgn/J (002288), B6.129S2-Nr4a1^tm1Jmi/J (NR4A1^−/−, 006187), and NOD-SCID interleukin-2 receptor gamma null (NSG) mice were purchased from Jackson Laboratories. For all studies involving NR-V04 and celastrol, the compounds were formulated in 50% phosal PG, 45% miglyol 810N, and 5% polysorbate 80 and administered via i.p. injection.
as §1

## CC1=C(O)C(=O)C=C2C1=CC=C1[C@@]2(C)CC[C@@]2(C)[C@@H]3C[C@](C)(C(=O)NCCOCCOCCOCCOCC(=O)N[C@H](C(=O)N4C[C@H](O)C[C@H]4C(=O)N[C@@H](C)c4ccc(-c5scnc5C)cc4)C(C)(C)C)CC[C@]3(C)CC[C@]12C [NR-V04]
PK study in mice; male, C57BL/6, plasma, IV 2 mg/kg
  clearance: 0.162 mL/min/kg
PK study in mice
  clearance rate (in words): low clearance rate
TI-B cells
  TI-B cells: significant increase in the TI-B cells
B16F10 melanoma; B16F10 in B6.129S2-Ighm^tm1Cgn/J mice that lack mature B cells
  tumor growth: unable to inhibit tumor growth
B16F10 melanoma; B16F10 in NR4A1^−/− mice, 1.8 mg/kg i.p.
  tumor growth: failed to inhibit B16F10
B16F10 melanoma; B16F10 in NSG mice, 1.8 mg/kg i.p.
  tumor growth: failed to inhibit tumor growth
B16F10 melanoma; B16F10 in WT mice, 1.8 mg/kg NR-V04 or 0.75 mg/kg celastrol i.p. twice a week from day 7
  tumor growth: effectively inhibited tumor growth
